Measurements reported in patent publication US20040043918A1, “Apoptosis inducers, caspase cascade activators and anticancer agent” (KIMIGAFUCHI GAKUEN, priority 2000, published 2004).

Assays:
Assay type in all cases: cell-based
[1] = test system: human promyelocytes of leukemia (HL-60); test: Procaspase-3 catabolic enzyme inhibition experiment using a flow cytometer; details: inhibitor preincubated, then DMPC liposome solution, FIG. 4
[2] = test system: human promyelocytes of leukemia (HL-60); test: Caspase-1,4 inhibition experiment using a flow cytometer; details: inhibitor preincubated, then DMPC liposome solution, FIG. 5
[3] = test system: human promyelocytes of leukemia (HL-60); test: Caspase-9 inhibition experiment using a flow cytometer (DNA fragmentation, PI dyeing)
Method: The following experiment was performed using the reagents prepared in section 1-1. First of all, multiple samples were prepared in stages wherein 0 to 120 μl of caspase-9 inhibitor was added to 12 ml of a suspension ([…]) of human promyelocytes of leukemia (HL-60, purchased from Riken Cell Bank). Then, the mixture were incubated for 90 minutes, 2 ml of liposome solution comprising dimyristoyl phosphatidylcholine was each added to the samples. Subsequently, each of the samples were incubated for three hours. After washing each sample with 2 ml of −PBS, 5 ml of 70% ethanol was added to each sample, and each sample was left at freezing temperature for one hour so as to be subjected to tissue-fixing. Furthermore, following washing each sample with 2 ml of −PSB, 6 ml of RNase solution was added to each sample, and subsequently, each sample was incubated for 30 minutes. Next, following adding 670 μl of PI solution, each sample was shielded from light with aluminum foil, and was left in a dark place at freezing temperature for 30 minutes, and was subjected to PI dyeing. After PI dyeing, each sample was subjected to centrifugal separation at 2000 rpm for five minutes. After removal of supernatant, and the precipitation formed was suspended in 500 μl of −PBS so as to measure DNA content using a flow cytometer (product name, COULTER EPICS-XL). Inhibition effects were evaluated by the ratios of the DNA fragmentation percentage of the control (wherein no caspase-9 inhibitor was added, and only a liposome solution comprising dimyristoyl phosphatidylcholine was added) to the DNA fragmentation percentages of the samples wherein caspase-9 inhibitor was added in stages.

[4] = control without caspase-9 inhibitor, only DMPC liposome solution, three hours

## Ac—L-Ile-L-Glu-L-Thr-L-Asp-H [procaspase-3 catabolic enzyme inhibitor]
[1]
  DNA fragmentation percentage with procaspase-3 catabolic enzyme inhibitor added in stages: decreased approximately depending upon the concentration

## Ac—L-Tyr-L-Val-L-Ala-L-Asp-H [caspase-1,4 inhibitor]
[2]
  DNA fragmentation percentage with caspase-1,4 inhibitor added in stages: decreased approximately depending upon the concentration

## CCCCCCCCCCCCCC(=O)OC[C@H](COP(=O)([O-])OCC[N+](C)(C)C)OC(=O)CCCCCCCCCCCCC [dimyristoyl phosphatidylcholine, 1,2-dimyristoyl-sn-glycero-3-phosphocholine]
[3]; [4]
  DNA fragmentation of human promyelocytes of leukemia: clearly observed
  apoptosis induction: apoptosis was induced

## Ac—L-Leu-L-Glu-L-His-L-Asp-H [caspase-9 inhibitor]
[3]; 0 to 120 μl inhibitor preincubated 90 minutes, then DMPC liposome solution for three hours, FIG. 3
  DNA fragmentation percentage with caspase-9 inhibitor added in stages: decreased approximately depending upon the concentration
